Key:
[1] = target: FKBP12 (Homo sapiens, UniProt P62942); test: Ki test procedure: inhibition of peptidyl-prolyl isomerase (rotamase) activity of FKBP12, chymotrypsin-coupled assay; assay type: biochemical; conditions: apparent Ki
From the text: The inhibition of the prolyl peptidyl cis-trans isomerase activity of FKBP may be measured as an indicator of this affinity.
The binding to FBKP12 and inhibition of the peptidyl-prolyl isomerase (rotamase) activity of the compounds used in the inventive methods and pharmaceutical compositions can be evaluated by known methods described in the literature (Harding et al., Nature, 1989, 341:758-760; Holt et al. J. Am. Chem. Soc., 115:9923-9938).
The cis-trans isomerization of an alanine-proline bond in a model substrate, N-succinyl-Ala-Ala-Pro-Phe-p-nitroanilide, is monitored spectrophotometrically in a chymotrypsin-coupled assay, which releases para-nitroanilide from the trans form of the substrate. The inhibition of this reaction caused by the addition of different concentrations of inhibitor is determined, and the data is analyzed as a change in first-order rate constant as a function of inhibitor concentration to yield the apparent Ki values.
In a plastic cuvette are added […] of ice cold assay buffer (25 mM HEPES, pH 7.8, 100 mM NaCl), 10 mL of FKBP (2.5 mM in 10 mM Tris-Cl pH 7.5, 100 mM NaCl, 1 mM dithiothreitol), […] of chymotrypsin (50 mg/ml in 1 mM HCl) and […] of test compound at various concentrations in dimethyl sulfoxide. The reaction is initiated by the addition of 5 mL of substrate (succinyl-Ala-Phe-Pro-Phe-para-nitroanilide, 5 mg/mL in 2.35 mM LiCl in trifluoroethanol).
The absorbance at 390 nm versus time is monitored for 90 seconds using a spectrophotometer and the rate constants are determined from the absorbance versus time data files.

[2] = tested on: outer hair cells (OHC); test: Intramiddle ear neomycin-induced ototoxicity, compound given into the middle ear, outer hair cell loss; assay type: in vivo, guinea pig; conditions: 10 ng in the middle ear
Description: Twenty guinea pigs used in this study were divided into two groups: 10 animals received 10 ng and 10 received 1 ng of the sensorineurotrophic compound.
Sensorineurotrophic compound stock A: A stock solution of sensorineurotrophic compound at 1 mg/10 ml in 100% ethanol was prepared and then diluted and mixed in Intralipid at 10 ng/100 μl.
Sensorineurotrophic compound stock B: A stock solution of sensorineurotrophic compound at 1 mg/100 ml in 100% ethanol was prepared and then diluted and mixed in 20% Intralipid at 1 ng/100 μl.
Animals were anesthetized with an intramuscular injection of a mixture of ketamine (80 mg/kg) and xylazine (4 mg/kg). Through a post-auricular incision, the right bulla was identified. A hole was drilled to open the middle ear cavity (care was taken not to injure the tympanic annulus or ossicles). A piece of gelfoam (˜2 mm^3) soaked with the sensorineurotrophic compound solution was inserted into the round window niche. The remaining sensorineurotrophic compound solution (˜100 μl) then was injected into the middle ear cavity. In the 10 ng dose group, 100 μl of sensorineurotrophic compound stock A was administered; and in the 1 ng dose group, 100 μl of sensorineurotrophic compound stock B was administered to the middle ear cavity. The hole was covered with a piece of clear plastic sheet which was stuck on the skull with a superglue. The incision was closed with clips. The same procedure was performed at the left bulla, but 100 μl of vehicle solution instead of sensorineurotrophic compound solution was administered. The animals were maintained in the prone position until they woke up to ensure filling of the middle ear cavity.
After two days, the animals received a second middle ear administration of sensorineurotrophic compound or vehicle together with neomycin. Solutions were prepared for the two groups of animals as follows:
Solution A: Neomycin was dissolved in sensorineurotrophic compound stock A described above. The final concentration of neomycin was 5 mg and the sensorineurotrophic compound concentration was 10 ng in a 100 μl vehicle solution.
Solution B: Neomycin was dissolved in sensorineurotrophic compound stock B described above. The final concentration of neomycin was 5 mg and the concentration of sensorineurotrophic compound was 1 ng in a 100 μl vehicle solution.
Solution C: Neomycin was dissolved in 20% Intralipid to a final concentration of 5 mg in 100 μl vehicle.
The plastic cover sheet on the bulla window was removed and the middle ear cavity was exposed. The old sensorineurotrophic compound or vehicle was sucked off and the old gelfoam was removed from the round window niche. A piece of gelfoam with fresh stock solution containing sensorineurotrophic compound and neomycin was administered to the round window niche, and the remaining solution (˜100 μl, solution A for the 10 ng dose group and solution B for the 1 ng dose group, respectively) was injected into the middle ear cavity of the right bulla.
Solution C (100 μl) was administered to the left ear for both groups in the same way.
Fourteen days after the second surgery, animals were perfused transcardially with a PBS flush followed by a fixative of 4% paraformaldehyde in 0.1M PBS. Immediately following the perfusion, the temporal bone was removed from the head. The bulla was opened and the cochlea was exposed. The apex was opened and the membrane of the round and oval windows was punched. The fixative solution was gently infused into the perilymphatic space through the apex hole and then allowed to flow out from windows. Then the cochleae were post-fixed in the same fixative solution for at least one day.
To identify and count hair cells in the organ of Corti, a direct immunostaining method was used to label the actin present naturally in the stereocilia bundles of the hair cells. The cochlea was dissected and the perilymphatic space was fully exposed. […]

[3] = tested on: Preyer's reflex; test: Cisplatin-induced ototoxicity, compound given systemically, Preyer's reflex monitoring; assay type: in vivo, guinea pig; conditions: 30 mg/kg s.c. daily, cisplatin 4 mg/kg i.p. x4; 10 days after the 4th injection; vehicle group more than 80%
Description: Twenty male pigmented guinea pigs were divided into two groups (10 in each). One group was treated with Compound XXV while the other with vehicle—2 days prior to the first cisplatin injection. The test compound or vehicle was delivered by daily sub-cutaneous injection. On the day of injection, 100 mg of Compound XXV was dissolved in 1 ml of ethanol, then added to 20% Intralipid solution to a final volume of 3 ml and final Compound XXV concentration of 10 mg/0.3 ml. Each animal was subcutaneously injected with 30 mg/kg of Compound XXV solution Two days after the beginning of test compound injections (d2), cisplatin intraperitoneal injection was given to all animals at 4 mg/kg. After 3 days, a second cisplatin injection was given to all animals (d5). After another 3 days, a third injection (d8) and after 3 more days the fourth and last injection of cisplatin was given (d11). Test compound injections continued daily until day 21 (10 days after the last cisplatin injection).
Preyers' reflex is a rough indication of hearing function in rodents. […] The animals in this experiment were monitored daily for their Preyer's reflex. […]
Determination of hair cell numbers was determined in the same manner as in Example 4.

[4] = rotamase inhibition, Table XLI, Formulas I to XIV

FKBP12, sequence (P62942 whole entry, species assumed): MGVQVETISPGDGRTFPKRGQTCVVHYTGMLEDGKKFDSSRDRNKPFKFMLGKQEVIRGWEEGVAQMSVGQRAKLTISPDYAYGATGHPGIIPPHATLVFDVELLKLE

SMILES | Ki ([1]; FKBP12 rotamase inhibition) [nM] | Ki [1, 4] [nM] | further results
O=C(C(=O)N1CCCCC1C(=O)SCCc1ccccc1)c1ccccc1 (stereo not shown) [Compound 14] | – | 313 | –
O=C(C(=O)N1CCC[C@H]1C(=O)SCCc1ccccc1)C1CCCC1 [Compound 28, 2-Phenyl-1-ethyl (2S)-1-(1-cyclopentyl-1,2-dioxoethyl)-2-pyrrolidinecarbothioate] | – | 108 | –
CCC(C)(C)C(=O)C(=O)N1CSC[C@@H]1C(=O)OCCCc1ccccc1 [Compound 80, 3-phenyl-1-propyl(2S)-1-(3,3-dimethyl-1,2-dioxopentyl)-2-(4-thiazolidine)carboxylate] | – | 215 | –
CCC(C)(C)C(=O)C(=O)N1CCC[C@H]1C(=O)SCCC(c1ccccc1)c1ccccc1 [Compound XVI] | – | – | difference in the number of OHCs lost, vehicle vs compound (FIG. 8) ([2]; 5 mg neomycin, group mean): over 50%; loss of hair cells in the second turn (turn 3), in words ([2]; neomycin (FIG. 9)): completely prevent the loss; loss of hair cells in the basal turn (turn 4) ([2]; neomycin, vehicle almost 100% (FIG. 9)): around 30%
CCC(C)(C)C(=O)C(=O)N1CCCCC1C(=O)SCCC(c1ccccc1)c1ccccc1 (stereo not shown) [Compound XXV] | – | – | animals that lost Preyer's reflex [3]: about 20 % of the animals

Second part, led by results:

Ki ([1]; FKBP12 rotamase inhibition) [nM] | SMILES | Ki [1, 4] [nM] | further results
51 to 200 | CCC(C)(C)NC(=O)N1CCCC1C(=O)SCCCc1ccc(OC)cc1 (stereo not shown) [Compound 103] | – | –
1 to 50 | O=C(SCCCc1cccnc1)C1CCCN1C(=S)NC12CC3CC(CC(C3)C1)C2 (stereo not shown) [Compound 108] | – | –
1 to 50 | O=C(SC(CCc1ccccc1)CCc1ccccc1)C1CCCCN1C(=O)Nc1ccccc1 (stereo not shown) [Compound 113] | – | –

Source: patent US20040186098A1 (Amgen Inc., priority 1997, published 2004)
